This is an account of results in paper PMC10315065 (Journal of Innate Immunity, 2023).

Starred links: 1 amine or outer side, 2 acyl side, 3 side chain; linkers in the order of their positions; H or OH if unused. Positions of bridges follow the written chain, without caps; N, C: chain ends. Non-standard residues stand in square brackets, D forms with d. Residues, ends and D or L forms follow the SMILES beside them. Chains are numbered I, II in the order given. Actinocin(9to1) = Cc1c2oc3c(C)ccc(C(=O)[*:1])c3nc-2c(C(=O)[*:2])c(N)c1=O; NMeV = CN[C@H](C(=O)O)C(C)C; Sar = CNCC(=O)O

One assay relates to peritoneal macrophages. Nature of the assay: Flow cytometry binding/uptake of LL-37-FAM, peritoneal macrophages. It is filed as cell-based, C57BL/6 mice. Background: A flow cytometer gives signals particle by particle.
Another assay concerns J774 macrophages. As to the kind of experiment: Flow cytometry binding/internalization of labelled peptide, J774. It is filed as cell-based, mouse. Particulars: n = 3.
In the next assay the test system is cell surface GAPDH, J774. In kind it is cell-based, mouse. Particulars: KN-62 100 nM, 4 h; J774 wild-type; n = 3.
In assay [1] the test system is intracellular Mycobacterium tuberculosis in macrophages. Particulars: cited from earlier work; for autophagy activation and M.tb elimination: via induction of cathelicidin LL-37.
Assay [2] concerns GAPDH KD and wild-type cells. Particulars: induced with actinomycin D; cited from earlier work.
The test system of the next assay is THP-1 cells. Nature of the assay: Endocytosis of BSA-FITC. In kind it is cell-based. Conditions: BSA-FITC 10 μg, 37°C, 30 min; PMA-activated THP-1.
Assay [3] is described as follows: Downstream effects of scrambled peptide. Particulars: statement on negative control peptide.
Another assay relates to TLR-4, THP-1 cells. Nature of the assay: TLR-4 membrane expression on LPS treatment. It is filed as cell-based. Conditions: LPS 1 ug, 24 h; PMA-activated THP-1.

For the molecule “5-FAM-LC-LLGDFFRKSKEKIGKEFKRIVQRIKDFLRNLVPRTES [LL-37-FAM]”, in the assay with peritoneal macrophages, the “cell surface LL-37 binding and uptake, M.tb infected” value is listed as “significantly enhanced”. Besides, in the assay on J774 macrophages (IFNγ-treated subsets vs control cells), the “LL-37 membrane accumulation and uptake, IFNγ-treated” value is reported as “initial higher accumulation of FAM-LL-37 at their membrane, followed by increase in LL-37 uptake into the cytoplasm”.
Regarding `CN([C@@H](Cc1ccc(OS(=O)(=O)c2cccc3cnccc23)cc1)C(=O)N1CCN(c2ccccc2)CC1)S(=O)(=O)c1cccc2cnccc12` [KN-62, 1-(N,O-bis(5-Isoquinolinesulfonyl)-N-methyl-L-tyrosyl)-4-phenylpiperazine], the “LL-37 uptake with KN-62” value in the assay with J774 macrophages (KN-62 100 nM, 4 h, J774 wild-type) is listed as “inhibition of LL-37 uptake into cells”. The “cell surface GAPDH expression with KN-62” value in the assay on cell surface GAPDH, J774 is recorded as “decrease in cell surface GAPDH expression”. Further, the “effect on LL-37-induced anti-mycobacterial effects” value in assay [1] (KN-62) is “does not inhibit LL-37-induced anti-mycobacterial effects”.
For the molecule `Cc1c2oc3c(C)ccc(C(=O)N[C@@H]4C(=O)N[C@H](C(C)C)C(=O)N5CCC[C@H]5C(=O)N(C)CC(=O)N(C)[C@@H](C(C)C)C(=O)O[C@@H]4C)c3nc-2c(C(=O)N[C@@H]2C(=O)N[C@H](C(C)C)C(=O)N3CCC[C@H]3C(=O)N(C)CC(=O)N(C)[C@@H](C(C)C)C(=O)O[C@@H]2C)c(N)c1=O` [actinomycin D] (I: T[dV]P[Sar][NMeV] / II: T[dV]P[Sar][NMeV]; ester I:1-I:C, II:1-II:C; linker I:N-II:N via Actinocin(9to1)), the “induction of apoptosis, GAPDH KD vs wild-type” value in assay [2] is “comparable”.
Consider `O=C(O)CCCc1ccccc1` [phenylbutyrate], for which the “autophagy activation and M.tb elimination” value in assay [1] was “activate the antibacterial autophagy mechanism”.
Consider `C=C1/C(=C\C=C2/CCC[C@]3(C)[C@@H]([C@H](C)CCCC(C)(C)O)CC[C@@H]23)C[C@@H](O)C[C@@H]1O` [vitamin 1,25-D3], for which, in assay [1], the “autophagy activation and M.tb elimination” value is “activate the antibacterial autophagy mechanism”.
BSA: BSA-FITC, endocytosis control: the “endocytosis of BSA, empty vector vs GAPDH KD” value in the assay on THP-1 cells is listed as “could equally well carry out endocytosis of BSA”.
For “GLKLRFEFSKIKGEFLKTPEVRFRDIKLKDNRISVQR [scrambled peptide]”, the “downstream effects of scrambled peptide” value in assay [3] was “does not show downstream effects like the LL-37 peptide”.
For the molecule lipopolysaccharide, the “TLR-4 membrane expression, empty vector and GAPDH KD” value with TLR-4, THP-1 cells is “upregulation of TLR-4 membrane expression levels”.
